Measured values from PMC8951040, “Determination of Flavonoids in Selected Scleranthus Species and Their Anti-Collagenase and Antioxidant Potential” (Molecules, 2022).
“And” between values parts separate entries of the source, which are not always exact repeats. Equal values may be shown once.

Experiments:
[1] = ABTS radical cation assay (antioxidant assay kit CS0790); conditions: 5 min incubation, absorbance 405 nm; mean ± SD, triplicate
Description: Suppression of the production of the radical cation was measured using an antioxidant assay kit (CS0790). In brief, 10 µL of the test sample, 20 µL of myoglobin working solution, and 150 µL of ABTS working solution (containing ABTS substrate solution and 3% hydrogen peroxide) were mixed into a clear, flat-bottom 96-well plate. After 5 min of incubation, 100 µL of stop solution was added and absorbance was measured at 405 nm. The antioxidant concentration of tested samples was calculated using the equation obtained through linear regression of the Trolox standard curve.

[2] = CUPRAC assay (antioxidant assay kit MAK334); conditions: 10 min incubation, absorbance 570 nm; mean ± SD, triplicate
Description: The reducing power of copper ions was evaluated using an antioxidant assay kit (MAK334). Briefly, 20 µL of sample and 100 µL of reaction mix were added into separate wells in a 96-well plate. After 10 min of incubation, the absorbance endpoint was measured at 570 nm. Total antioxidant capacity was determined using a standard curve evaluated for Trolox.

[3] = DPPH radical scavenging assay; conditions: 30 min incubation, absorbance 517 nm; mean ± SD, triplicate
Description: Individual test compounds and extracts in methanol (130 µL) were added to 70 µL of a solution of DPPH (2,2-diphenyl-1-picrylhydrazyl). After 30 min of incubation, the absorbance was evaluated at 517 nm. The determination was performed in triplicate and corrected to a blank sample (pure methanol). The radical scavenging activity of the tested samples was expressed as Trolox equivalents, calculated from the standard curve.

[4] = target: collagenase from Clostridium histolyticum; test: Anti-collagenase assay (FALGPA substrate); format: biochemical; conditions: 20 min at 37 °C, absorbance 335 nm, mean ± SD, triplicate
Description: The potential anti-collagenase activity was assessed as previously described. In short, a solution including 25 µL of collagenase from Clostridium histolyticum, 25 µL of Tricine buffer, and 25 µL of various levels of the extracts (SP1–SP6, SA1–SA6) or compounds (6–9) were incubated at 37 °C. After 20 min, 75 µL of FALGPA was added. Then, absorbance was measured at 335 nm. The experiment was performed in 50 mM Tris buffer. The blank was evaluated using Tricine buffer, instead of sample, and the positive control was epigallocatechin gallate (EGCG). All measurements were conducted in triplicate and the IC50 for each sample was calculated. The percentage of collagenase inhibitory activity (CoInh) was calculated as follows:Enzyme inhibition activity (%) = [1 − (B/S)] × 100%, where B is the blank and S is the sample.

[5] = FRAP ferric reducing antioxidant power assay kit; conditions: 1 h at 37 °C, absorbance 594 nm; mean ± SD, triplicate
Description: The […] of the investigated substances toward ferrous ions was assessed using a ferric reducing antioxidant power assay kit. Briefly, 10 µL of each sample (SP1–SP6, SA1–SA6, 1–9) was mixed with 190 µL of supplied reaction mix (containing FRAP Assay Buffer, FeCl3 solution, and FRAP Probe). After 1 h of incubation at 37 °C, the absorbance was measured at 594 nm. A blank solution containing 10 µL of MeOH instead of extract/compound solution was used. For further calculations, the ferrous standard curve was evaluated. Values are given as mM Ferrous equivalents. All tests were performed in triplicate.

| Compound | ABTS (radical scavenging activity, Trolox equivalents) [1] [µM Teq] | CUPRAC (Trolox equivalents) [2] | DPPH (radical scavenging activity, Trolox equivalents) [3] [µM Teq] | melting point [°C] | IC50 [4] [µM] | FRAP (Fe2+ equivalents) [5] [mM Fe2+ equivalents] |
| --- | --- | --- | --- | --- | --- | --- |
| COc1ccc(C(C)=O)c(O[C@@H]2O[C@H](CO[C@@H]3OC[C@](O)(CO)[C@H]3O)[C@@H](O)[C@H](O)[C@H]2O)c1 [Compound 5, Apiopaeonoside] | 444.23 ± 0.47 | 48.46 ± 1.75 µM Teq | 61.96 ± 1.90 | – | – | – |
| COc1cc(-c2cc(=O)c3c(O)cc(O)c(C4OCC(O)C(O)C4OC4OC(CO)C(OC(C)=O)C(O)C4O)c3o2)ccc1OC(C)=O [Compound 6, 5,7-dihydroxy-3′-methoxy-4′-acetoxyflavone-8-C-β-D-arabinopyranoside-2″-O-(4‴-acetoxy)-glucoside] | 169.27 ± 1.68 | 18.57 µM Teq and 18.57 ± 0.76 µM Teq | 6.69 ± 0.97 | 187 to 188 | 39.6 ± 1.21 | – |
| O=c1cc(-c2ccc(O)c(O)c2)oc2c(C3OC(CO)C(O)C(O)C3O)c(O)c(C3OCC(O)C(O)C3O)c(O)c12 [Compound 7, 5,7,3′,4′-tetrahydroxyflavone-6-C-xyloside-8-C-β-D-glucoside] | 796.61 ± 1.23 | 116.16 µM Teq and 116.16 ± 0.76 µM Teq | 409.16 ± 2.03 | – | 73.9 ± 1.03 | – |
| O=c1cc(-c2cccc(O)c2)oc2c(C3OC(CO)C(O)C(O)C3O)c(O)c(C3OC(CO)C(O)C(O)C3O)c(O)c12 [Compound 8, 5,7,3′-trihydroxyflavone-6-C-glucoside-8-C-β-D-glucoside] | 369.24 ± 3.05 | 27.15 ± 1.32 µM Teq | 176.71 ± 0.97 | – | 53.4 ± 0.88 | 5.16 ± 0.96 |
| COc1cc(-c2cc(=O)c3c(O)c(C4OC(CO)C(O)C(O)C4O)c(O)c(C4OCC(O)C(O)C4O)c3o2)ccc1O [Compound 9, 5,7,4′-trihydroxy-3′-methoxyflavone-6-C-β-D-glucopyranoside-8-C-α-arabinopyranoside] | 586.69 ± 2.91 | 18.20 ± 0.76 µM Teq | 407.05 ± 1.83 | – | 71.1 ± 0.97 | 9.07 ± 0.45 |
| O=C(O[C@@H]1Cc2c(O)cc(O)cc2O[C@@H]1c1cc(O)c(O)c(O)c1)c1cc(O)c(O)c(O)c1 [EGCG, epigallocatechin gallate, reference compound] | – | – | – | – | 34.8 ± 0.53 | – |
| scleranthoside A [Compound 1] | 765.16 ± 2.83 | 581.32 µM Teq and 581.32 ± 3.61 µM Teq | 405.15 ± 3.12 | – | – | – |
| scleranthoside B [Compound 2] | 188.57 ± 1.86 | 114.56 ± 2.04 µM Teq | 198.43 ± 2.40 | – | – | 5.68 ± 0.68 |
| scleranthoside C [Compound 3] | 198.57 ± 2.46 | 67.30 µM Teq and 67.30 ± 1.30 µM Teq | 7.11 ± 0.59 | – | – | – |
| scleranthoside D [Compound 4] | 302.05 ± 2.42 | 44.22 ± 1.35 µM Teq | 9.64 ± 0.82 | – | – | 2.65 ± 0.47 |
